Data taken from patent publication US7265099B1, “Use of chemical chelators as reversal agents for drug-induced neuromuscular block” (Organon N.V., priority 1999, dated 2007).
Marks after values point to notes of the source that are not given here.

What was measured:
[1] = system: steady-state neuromuscular block induced by rocuronium bromide (Roc); assay: Reversal of neuromuscular blockade in vivo, anaesthetized guinea pig, rocuronium; settings: Roc infusion, 85–90% block, anaesthetized guinea pigs, i.v. reversal agent; mean
Protocol: (§1) Male Dunkin-Hartley guinea pigs (bodyweight: 600–900 g) were anaesthetized by i.p. administration of 10 mg/kg pentobarbitone and 1000 mg/kg urethane. After tracheotomy, the animals were artificially ventilated using a Harvard small animal ventilator. A catheter was placed into the carotid artery for continuous monitoring of arterial blood pressure and the taking of blood samples for blood gas analysis. Heart rate was derived from the blood pressure signal. The sciatic nerve was stimulated (rectangular pulses of 0.5 ms duration at 10 s (0.1 Hz) intervals at a supramaximal voltage, using a Grass S88 Stimulator) and the force of M. gastrocnemius contractions was measured using a Grass FT03 force-displacement transducer. Contractions, blood pressure and heart rate were recorded on a multichannel Grass 7D recorder. Catheters were placed in both jugular veins. One catheter was used for the continuous infusion of a neuromuscular blocking agent. The infusion rate of the neuromuscular blocking agent was increased until a steady-state block of 85–90% was obtained. The other catheter was used for administration of increasing doses of the reversal agent. During continuous infusion of the neuromuscular blocking agent, single doses of increasing concentration of reversal agent were given. At the end of the experiment, the measured force of muscle contractions was plotted against the concentration of reversal agent, and using regression analysis techniques, the 50% reversal concentration was calculated.
Reversal of neuromuscular block in vivo, induced by rocuronium bromide, was carried out as described in Example 5.

[2] = system: steady-state neuromuscular block induced by vecuronium bromide (Vec); assay: Reversal of neuromuscular blockade in vivo, anaesthetized guinea pig, vecuronium; settings: Vec infusion, 85–90% block, anaesthetized guinea pigs, i.v. reversal agent; mean
Protocol: as §1

[3] = system: steady-state neuromuscular block induced by pancuronium bromide (Pan); assay: Reversal of neuromuscular blockade in vivo, anaesthetized guinea pig, pancuronium; settings: Pan infusion, 85–90% block, anaesthetized guinea pigs, i.v. reversal agent; mean
Protocol: as §1

[4] = system: steady-state neuromuscular block induced by mivacurium chloride (Miv); assay: Reversal of neuromuscular blockade in vivo, anaesthetized guinea pig, mivacurium; settings: Miv infusion, 85–90% block, anaesthetized guinea pigs, i.v. reversal agent; mean
Protocol: as §1

[5] = system: steady-state neuromuscular block induced by atracurium besilate (Atr); assay: Reversal of neuromuscular blockade in vivo, anaesthetized guinea pig, atracurium; settings: Atr infusion, 85–90% block, anaesthetized guinea pigs, i.v. reversal agent; mean
Protocol: as §1

[6] = system: steady-state neuromuscular block induced by cis-atracurium (Cis-Atr); assay: Reversal of neuromuscular blockade in vivo, anaesthetized guinea pig, cis-atracurium; settings: Cis-Atr infusion, 85–90% block, anaesthetized guinea pigs, i.v. reversal agent; mean
Protocol: as §1

[7] = system: steady-state neuromuscular block induced by tubocurarine chloride (T-C); assay: Reversal of neuromuscular blockade in vivo, anaesthetized guinea pig, tubocurarine; settings: T-C infusion, 85–90% block, anaesthetized guinea pigs, i.v. reversal agent; mean
Protocol: as §1

[8] = system: steady-state neuromuscular block induced by suxamethonium chloride (Sux; succinylcholine); assay: Reversal of neuromuscular blockade in vivo, anaesthetized guinea pig, suxamethonium; settings: Sux infusion, 85–90% block, anaesthetized guinea pigs, i.v. reversal agent; mean
Protocol: as §1

[9] = system: steady-state neuromuscular block induced by rapacuronium bromide (Rap; Org 9487); assay: Reversal of neuromuscular blockade in vivo, anaesthetized guinea pig, rapacuronium; settings: Rap infusion, 85–90% block, anaesthetized guinea pigs, i.v. reversal agent; mean
Protocol: as §1

[10] = system: neuromuscular block induced by rocuronium in isolated mouse hemidiaphragm; assay: Reversal of neuromuscular block in vitro: isolated mouse hemidiaphragm preparation; settings: for Mouse hemidiaphragm: maximum reversal (%) / concentration of chemical chelator at maximum reversal: 3.1 μM rocuronium; for concentration of chemical chelator at maximum reversal: mouse hemidiaphragm; for Reversal of the neuromuscular blocking action of rocuronium (in words): rocuronium-induced block
Protocol: Hemidiaphragms, with phrenic nerves attached, were removed from euthanized male mice (Institute of Cancer Research; bodyweight: 20–60 g). The preparations were mounted on a tissue holder and placed in a tissue bath filled with a modified Krebs-Henseleit solution (composition: 118 mM NaCl, 30 mM NaHCO3, 5 mM KCl, 1 mM KH2PO4, 1 mM MgSO4, 30 mM glucose and 2.5 mM CaCl2) at 37° C. and bubbled with 95% oxygen and 5% carbondioxide. One end of the preparation was connected with a siliconized silk suture to a Grass FT03 force-displacement transducer. An initial force of 10 mN was applied. The phrenic nerve was placed on a bipolar platinum electrode and was stimulated with rectangular pulses of 0.2 ms duration at 20 s (0.05 Hz) intervals at a supramaximal voltage, using a Grass S88 Stimulator. Contractions were recorded on a four channel Grass 79D recorder.
Increasing amounts of reversal agent were then administered into the bath at intervals of 10 min. The % maximum reversal was established. At the end of the experiment, the measured muscle contractions force was plotted against the concentration of reversal agent, and using regression analysis techniques, the 50% reversal concentration was calculated.
After induction of neuromuscular block by rocuronium, the % maximum reversal produced by the addition of a number of γ-cyclodextrin derivatives (compounds 11–16), a cyclic octasaccharide comprising 4 rhamnosyl-mannopyranosyl units (compound 24), or a number of paracyclophane derivatives (compounds 17–21 and 23) are presented in Table II.
Reversal of neuromuscular block in vitro was carried out using the mouse hemidiaphragm preparation as described in Example 6.

[11] = Complexation of rocuronium bromide by chemical chelators (1H NMR, 303 K); type: binding; settings: NMR spectroscopy at 303 K, D2O, curve fitting of proton chemical shift changes
Protocol: All the ^1H spectra (303 K) were recorded at 400.13 MHz with 128 scans, sw=12 ppm, TD=32 k and zero filled to 64 k real points in processing. All experiments were measured at 303K.
Determination of Stoichiometry
Stock solutions of rocuronium bromide and γ-cyclodextrin (15) were prepared, both with a concentration of 6.02 mM. From these, sixteen solutions were prepared (with the mole % of rocuronium ranging from 0-100) by taking aliquots of 0–800 μl of the rocuronium bromide solution. Aliquots of the γ-cyclodextrin solution, 800–0 μl were added to make the solution a total volume of 800 μl and 100 mole % (i.e. 6.02 mM of [rocuronium bromide+γ-cyclodextrin]). ^1H-NMR spectra were recorded as described above.
If the chemical shift change of H9α in rocuronium bromide is defined as Δδ then a plot of [Δδ*(mole % rocuronium bromide)] vs. [mole % rocuronium bromide] gives a so called Job Plot by the method of continuous variation (Connors K. A.: Binding constants, The measurement of Molecular Complex Stability; Wiley-Interscience; New York, 1987, pp 24–28). The maximum in this plot is indicative for the stoichiometry of the complex.
Determination of the Association Constants
A stock solution of rocuronium bromide: 0.821 mM in D2O was prepared. […]
^1H NMR spectra were recorded as descibed above. […]

2-hydroxypropyl-γ-CD (DS = 4) [Compound 16]
Dose (ED50) producing 50% reversal of steady-state neuromuscular block [1]: 12 (3) μmol.kg^−1 | Dose (ED50) producing 50% reversal of steady-state neuromuscular block [2]: 123 (3) μmol.kg^−1 | Dose (ED50) producing 50% reversal of steady-state neuromuscular block [3]: 440 (3) μmol.kg^−1 | Dose (ED50) producing 50% reversal of steady-state neuromuscular block [4]: 1674 (2) μmol.kg^−1 | Dose (ED50) producing 50% reversal of steady-state neuromuscular block [5]: 828 (2) μmol.kg^−1 | Dose (ED50) producing 50% reversal of steady-state neuromuscular block [6]: 878 (2) μmol.kg^−1 | Dose (ED50) producing 50% reversal of steady-state neuromuscular block [7]: 909 (2) μmol.kg^−1 | Dose (ED50) producing 50% reversal of steady-state neuromuscular block [8]: 1340 (2) μmol.kg^−1 | Dose (ED50) producing 50% reversal of steady-state neuromuscular block [9]: 134 (3) μmol.kg^−1 | Mouse hemidiaphragm: maximum reversal (%) [10]: 71% | concentration of chemical chelator at maximum reversal [10]: 360 µM

OC[C@H]1O[C@@H]2O[C@H]3[C@H](O)[C@@H](O)[C@@H](O[C@H]4[C@H](O)[C@@H](O)[C@@H](O[C@H]5[C@H](O)[C@@H](O)[C@@H](O[C@H]6[C@H](O)[C@@H](O)[C@@H](O[C@H]7[C@H](O)[C@@H](O)[C@@H](O[C@H]8[C@H](O)[C@@H](O)[C@@H](O[C@H]1[C@H](O)[C@H]2O)O[C@@H]8CO)O[C@@H]7CO)O[C@@H]6CO)O[C@@H]5CO)O[C@@H]4CO)O[C@@H]3CO [Compound 9, β-cyclodextrin]
Association constant (Ka, M^−1) of 1:1 complex of rocuronium bromide and cyclic host compound [11]: 3,100–3,900* M^−1 | Dose (ED50) producing 50% reversal of steady-state neuromuscular block [1]: 20 (3) μmol.kg^−1 | Dose (ED50) producing 50% reversal of steady-state neuromuscular block [2]: 636 (1) μmol.kg^−1 | Dose (ED50) producing 50% reversal of steady-state neuromuscular block [3]: 1050 (2) μmol.kg^−1 | Dose (ED50) producing 50% reversal of steady-state neuromuscular block [9]: 358 (3) μmol.kg^−1

OC[C@H]1O[C@@H]2O[C@H]3[C@H](O)[C@@H](O)[C@@H](O[C@H]4[C@H](O)[C@@H](O)[C@@H](O[C@H]5[C@H](O)[C@@H](O)[C@@H](O[C@H]6[C@H](O)[C@@H](O)[C@@H](O[C@H]7[C@H](O)[C@@H](O)[C@@H](O[C@H]8[C@H](O)[C@@H](O)[C@@H](O[C@H]9[C@H](O)[C@@H](O)[C@@H](O[C@H]1[C@H](O)[C@H]2O)O[C@@H]9CO)O[C@@H]8CO)O[C@@H]7CO)O[C@@H]6CO)O[C@@H]5CO)O[C@@H]4CO)O[C@@H]3CO [Compound 15, γ-cyclodextrin]
Association constant (Ka, M^−1) of 1:1 complex of rocuronium bromide and cyclic host compound [11]: 10,000–20,400# M^−1 | Dose (ED50) producing 50% reversal of steady-state neuromuscular block [1]: 4 (3) μmol.kg^−1 | Dose (ED50) producing 50% reversal of steady-state neuromuscular block [2]: 75 (4) μmol.kg^−1 | Dose (ED50) producing 50% reversal of steady-state neuromuscular block [3]: 186 (4) μmol.kg^−1 | Dose (ED50) producing 50% reversal of steady-state neuromuscular block [4]: 1690 (2) μmol.kg^−1 | Dose (ED50) producing 50% reversal of steady-state neuromuscular block [5]: 2793 (4) μmol.kg^−1 | Dose (ED50) producing 50% reversal of steady-state neuromuscular block [6]: 1710 (2) μmol.kg^−1 | Dose (ED50) producing 50% reversal of steady-state neuromuscular block [7]: 630 (2) μmol.kg^−1 | Dose (ED50) producing 50% reversal of steady-state neuromuscular block [8]: 1189 (2) μmol.kg^−1 | Dose (ED50) producing 50% reversal of steady-state neuromuscular block [9]: 57 (3) μmol.kg^−1 | Mouse hemidiaphragm: maximum reversal (%) [10]: 94% | concentration of chemical chelator at maximum reversal [10]: 144 µM | Reversal of the neuromuscular blocking action of rocuronium (in words) [10]: efficiently blocked

carboxyethyl-γ-CD (DS = 3.8) [Compound 14]
Dose (ED50) producing 50% reversal of steady-state neuromuscular block [1]: 7 (3) μmol.kg^−1 | Dose (ED50) producing 50% reversal of steady-state neuromuscular block [2]: 25 (3) μmol.kg^−1 | Dose (ED50) producing 50% reversal of steady-state neuromuscular block [3]: 141 (3) μmol.kg^−1 | Dose (ED50) producing 50% reversal of steady-state neuromuscular block [4]: 399 (2) μmol.kg^−1 | Dose (ED50) producing 50% reversal of steady-state neuromuscular block [5]: 421 (2) μmol.kg^−1 | Dose (ED50) producing 50% reversal of steady-state neuromuscular block [6]: 1558 (3) μmol.kg^−1 | Dose (ED50) producing 50% reversal of steady-state neuromuscular block [7]: 294 (2) μmol.kg^−1 | Dose (ED50) producing 50% reversal of steady-state neuromuscular block [8]: 1294 (2) μmol.kg^−1 | Dose (ED50) producing 50% reversal of steady-state neuromuscular block [9]: 43 (3) μmol.kg^−1 | Mouse hemidiaphragm: maximum reversal (%) [10]: 87% | concentration of chemical chelator at maximum reversal [10]: 144 µM | Reversal of the neuromuscular blocking action of rocuronium (in words) [10]: efficiently blocked

carboxymethyl-γ-CD (DS = 3.2) [Compound 13]
Dose (ED50) producing 50% reversal of steady-state neuromuscular block [1]: 25 (4) μmol.kg^−1 | Dose (ED50) producing 50% reversal of steady-state neuromuscular block [2]: 30 (3) μmol.kg^−1 | Dose (ED50) producing 50% reversal of steady-state neuromuscular block [3]: 641 (4) μmol.kg^−1 | Dose (ED50) producing 50% reversal of steady-state neuromuscular block [4]: 964 (3) μmol.kg^−1 | Dose (ED50) producing 50% reversal of steady-state neuromuscular block [5]: 990 (2) μmol.kg^−1 | Dose (ED50) producing 50% reversal of steady-state neuromuscular block [6]: 893 (2) μmol.kg^−1 | Dose (ED50) producing 50% reversal of steady-state neuromuscular block [7]: 431 (2) μmol.kg^−1 | Dose (ED50) producing 50% reversal of steady-state neuromuscular block [8]: 999 (2) μmol.kg^−1 | Dose (ED50) producing 50% reversal of steady-state neuromuscular block [9]: 227 (2) μmol.kg^−1 | Mouse hemidiaphragm: maximum reversal (%) [10]: 88% | concentration of chemical chelator at maximum reversal [10]: 180 µM | Reversal of the neuromuscular blocking action of rocuronium (in words) [10]: efficiently blocked

γ-cyclodextrin-phospate sodium salt (DS = 3) [Compound 11]
Dose (ED50) producing 50% reversal of steady-state neuromuscular block [1]: 64 (3) μmol.kg^−1 | Dose (ED50) producing 50% reversal of steady-state neuromuscular block [2]: 67 (3) μmol.kg^−1 | Dose (ED50) producing 50% reversal of steady-state neuromuscular block [3]: 197 (2) μmol.kg^−1 | Dose (ED50) producing 50% reversal of steady-state neuromuscular block [4]: 292 (2) μmol.kg^−1 | Dose (ED50) producing 50% reversal of steady-state neuromuscular block [5]: 113 (2) μmol.kg^−1 | Dose (ED50) producing 50% reversal of steady-state neuromuscular block [6]: 204 (2) μmol.kg^−1 | Dose (ED50) producing 50% reversal of steady-state neuromuscular block [7]: 160 (2) μmol.kg^−1 | Dose (ED50) producing 50% reversal of steady-state neuromuscular block [8]: 160 (2) μmol.kg^−1 | Dose (ED50) producing 50% reversal of steady-state neuromuscular block [9]: 80 (3) μmol.kg^−1 | Mouse hemidiaphragm: maximum reversal (%) [10]: 34% | concentration of chemical chelator at maximum reversal [10]: 360 µM
